One assay concerns the target CDK-2/Cyclin A (Homo sapiens, UniProt P24941). In words: CDK2 inhibition assay (coupled enzyme assay). In kind it is biochemical. The following applies: 100 μM ATP, 25 nM CDK-2/Cyclin A. As for the experimental part:
Compounds were screened for their ability to inhibit CDK-2/Cyclin A using a standard coupled enzyme assay (Fox et al (1998) Protein Sci 7, 2249). Reactions were carried out in 100 mM HEPES pH 7.5, 10 mM MgCl2, 25 mM NaCl, 1 mM DTT and 1.5% DMSO. Final substrate concentrations in the assay were 100 μM ATP (Sigma chemicals) and 100 μM peptide (American Peptide, Sunnyvale, Calif.). Assays were carried out at 30° C. and 25 nM CDK-2/Cyclin A. Final concentrations of the components of the coupled enzyme system were 2.5 mM phosphoenolpyruvate, 350 μM NADH, 30 μg/ml pyruvate kinase and 10 μg/ml lactate dehydrogenase.
An assay stock buffer solution was prepared containing all of the reagents listed above, with the exception of CDK-2/Cyclin A, DTT and the test compound of interest. 56 μl of the test reaction was placed in a 384 well plate followed by addition of 1 μl of 2 mM DMSO stock containing the test compound (final compound concentration 30 μM). The plate was preincubated for ˜10 minutes at 30° C. and the reaction initiated by addition of 10 μl of enzyme (final concentration 25 nM). Rates of reaction were obtained using a BioRad Ultramark plate reader (Hercules, Calif.) over a 5 minute read time at 30° C. Compounds showing >50% inhibition versus standard wells containing DMSO, but no compound, were titrated and IC50's determined using a similar protocol.

In the next assay the target is T1, ZAP-70 (Homo sapiens, UniProt P43403).
T1 sequence (P43403 1-619): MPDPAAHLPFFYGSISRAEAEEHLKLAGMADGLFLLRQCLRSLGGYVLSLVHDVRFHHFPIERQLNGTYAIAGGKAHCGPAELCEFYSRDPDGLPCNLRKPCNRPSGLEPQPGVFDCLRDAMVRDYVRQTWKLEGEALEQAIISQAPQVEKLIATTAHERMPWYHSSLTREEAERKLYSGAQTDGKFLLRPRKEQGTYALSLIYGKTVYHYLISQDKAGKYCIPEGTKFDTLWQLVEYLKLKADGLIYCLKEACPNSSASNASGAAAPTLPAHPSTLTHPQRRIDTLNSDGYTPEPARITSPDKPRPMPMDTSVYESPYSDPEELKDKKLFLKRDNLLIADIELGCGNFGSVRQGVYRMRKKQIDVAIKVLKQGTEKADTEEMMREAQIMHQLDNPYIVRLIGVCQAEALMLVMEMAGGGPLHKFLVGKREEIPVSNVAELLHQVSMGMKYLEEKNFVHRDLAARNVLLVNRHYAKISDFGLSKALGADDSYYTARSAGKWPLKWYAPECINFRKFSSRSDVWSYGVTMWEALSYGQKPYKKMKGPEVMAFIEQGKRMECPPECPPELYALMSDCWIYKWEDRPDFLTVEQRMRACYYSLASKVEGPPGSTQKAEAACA
In words: ZAP-70 inhibition assay (coupled enzyme assay). The following applies: 100 μM ATP, 60 nM ZAP-70. It counts as biochemical. As for the experimental part:
Compounds were screened for their ability to inhibit ZAP-70 using a standard coupled enzyme assay (Fox et al., Protein Sci., (1998) 7, 2249). Assays were carried out in a mixture of 100 mM HEPES 7.5, 10 mM MgCl2, 25 mM NaCl, 2 mM DTT and 3% DMSO. Final substrate concentrations in the assay were 100 μM ATP (Sigma Chemicals) and 20 μM peptide (poly-4EY, Sigma Chemicals). Assays were carried out at 30° C. and 60 nM ZAP-70. Final concentrations of the components of the coupled enzyme system were 2.5 mM phosphoenolpyruvate, 300 μM NADH, 30 μg/ml pyruvate kinase and 10 μg/ml lactate dehydrogenase.
An assay stock buffer solution was prepared containing all of the reagents listed above, with the exception of ZAP-70 and the test compound of interest. 55 μl of the stock solution was placed in a 96 well plate followed by addition of 2 μl of DMSO stock containing serial dilutions of the test compound (typically starting from a final concentration of 15 μM). […] Initial reaction rates were determined with a Molecular Devices SpectraMax Plus plate reader over a 15 minute time course. IC50 and Ki data were calculated from non-linear regression analysis using the Prism software package (GraphPad Prism version 3.0a for Macintosh, GraphPad Software, San Diego Calif., USA).

As usually defined, the Ki is a dissociation constant, usually derived from enzyme kinetics or from competition with a known ligand. `NS(=O)(=O)c1ccc(Nc2nccc(-c3ccc4c(c3)NC(=O)CO4)n2)cc1` [IVa-23]: the Ki at CDK-2/Cyclin A and at ZAP-70 was < 1000 nM throughout.

With `CN1C(=O)COc2ccc(-c3ccnc(Nc4ccc(S(N)(=O)=O)cc4)n3)cc21` [IVa-24], the inhibition constant Ki at CDK-2/Cyclin A and on ZAP-70 was < 1000 nM in each case.
